Assay: xn = mol fraction of the nth substance listed
Conditions: Liquid, Pycnometric method

COC(=O)OC [dimethyl carbonate] + O=C=O
mass density [kg/m3]
Conditions | 332.85 K | 337.45 K
8220 kPa, x1 = 0.0242 | – | 212
8340 kPa, x1 = 0.0242 | – | 217
8440 kPa, x1 = 0.0242 | – | 222
8530 kPa, x1 = 0.0242 | – | 226
8640 kPa, x1 = 0.0242 | – | 231
8730 kPa, x1 = 0.0242 | – | 236
8820 kPa, x1 = 0.0242 | – | 242
8920 kPa, x1 = 0.0242 | – | 247
9030 kPa, x1 = 0.0242 | – | 253
9130 kPa, x1 = 0.0242 | – | 259
9240 kPa, x1 = 0.0242 | – | 266
9350 kPa, x1 = 0.0242 | – | 272
9460 kPa, x1 = 0.0242 | – | 279
9570 kPa, x1 = 0.0242 | – | 287
9690 kPa, x1 = 0.0242 | – | 295
9760 kPa, x1 = 0.1484 | – | 790
9810 kPa, x1 = 0.0242 | – | 304
9820 kPa, x1 = 0.118 | 773 | –
9910 kPa, x1 = 0.0242 | 353 | –
9920 kPa, x1 = 0.1484 | 826 | –
9930 kPa, x1 = 0.0242 | – | 311
9960 kPa, x1 = 0.086 | 682 | –
10010 kPa, x1 = 0.0242 | 362 | –
10030 kPa, x1 = 0.086 | 686 | –
10040 kPa, x1 = 0.118 | 780 | –
10060 kPa, x1 = 0.1484 | – | 795
10090 kPa, x1 = 0.0481 | 484 | –
10110 kPa, x1 = 0.0242 | 371 | –
10180 kPa, x1 = 0.118 | – | 737
10200 kPa, x1 = 0.0242 | 381 | –
10200 kPa, x1 = 0.086 | 695 | –
10250 kPa, x1 = 0.0481 | 506 | –
10290 kPa, x1 = 0.1484 | 832 | –
10300 kPa, x1 = 0.0242 | 391 | –
10350 kPa, x1 = 0.0481 | 517 | –
10350 kPa, x1 = 0.118 | 788 | 743
10380 kPa, x1 = 0.0242 | 399 | –
10380 kPa, x1 = 0.086 | 704 | –
10420 kPa, x1 = 0.0481 | 525 | –
10450 kPa, x1 = 0.0481 | – | 450
10450 kPa, x1 = 0.086 | – | 631
10480 kPa, x1 = 0.086 | – | 634
10490 kPa, x1 = 0.0242 | 410 | –
10520 kPa, x1 = 0.0481 | 538 | –
10530 kPa, x1 = 0.086 | 711 | –
10530 kPa, x1 = 0.1484 | – | 804
10550 kPa, x1 = 0.086 | – | 640
10580 kPa, x1 = 0.0242 | 417 | –
10620 kPa, x1 = 0.118 | – | 751
10630 kPa, x1 = 0.086 | – | 644
10640 kPa, x1 = 0.0481 | 550 | –
10670 kPa, x1 = 0.0481 | – | 470
10720 kPa, x1 = 0.1484 | 839 | –
10740 kPa, x1 = 0.0481 | 560 | –
10740 kPa, x1 = 0.118 | 796 | –
10780 kPa, x1 = 0.0481 | – | 481
10800 kPa, x1 = 0.086 | – | 654
10820 kPa, x1 = 0.1484 | – | 809
10860 kPa, x1 = 0.086 | 724 | –
10890 kPa, x1 = 0.0481 | 574 | 492
10940 kPa, x1 = 0.118 | – | 760
11010 kPa, x1 = 0.0481 | – | 504
11060 kPa, x1 = 0.0481 | 588 | –
11080 kPa, x1 = 0.086 | – | 669
11160 kPa, x1 = 0.0481 | – | 517
11200 kPa, x1 = 0.118 | 805 | –
11230 kPa, x1 = 0.1484 | – | 816
11250 kPa, x1 = 0.1484 | 846 | –
11260 kPa, x1 = 0.0481 | 603 | –
11270 kPa, x1 = 0.086 | 738 | –
11290 kPa, x1 = 0.118 | – | 769
11310 kPa, x1 = 0.0481 | – | 530
11380 kPa, x1 = 0.086 | – | 684
11480 kPa, x1 = 0.0481 | – | 543
11500 kPa, x1 = 0.0481 | 619 | –
11650 kPa, x1 = 0.0481 | – | 558
11700 kPa, x1 = 0.118 | – | 779
11720 kPa, x1 = 0.1484 | – | 823
11730 kPa, x1 = 0.1484 | 851 | –
11740 kPa, x1 = 0.118 | 815 | –
11750 kPa, x1 = 0.086 | 751 | –
11760 kPa, x1 = 0.0481 | 636 | –
11780 kPa, x1 = 0.086 | – | 700
11850 kPa, x1 = 0.0481 | – | 573
11990 kPa, x1 = 0.0481 | 650 | –
12100 kPa, x1 = 0.0481 | – | 589
12160 kPa, x1 = 0.118 | 822 | –
12190 kPa, x1 = 0.118 | – | 789
12240 kPa, x1 = 0.1484 | – | 830
12260 kPa, x1 = 0.1484 | 858 | –
12270 kPa, x1 = 0.086 | 765 | 716
12280 kPa, x1 = 0.0481 | 663 | –
12360 kPa, x1 = 0.0481 | – | 607
12630 kPa, x1 = 0.0481 | 678 | –
12660 kPa, x1 = 0.118 | – | 798
12700 kPa, x1 = 0.118 | 830 | –
12740 kPa, x1 = 0.1484 | – | 838
12750 kPa, x1 = 0.086 | 775 | –
12750 kPa, x1 = 0.1484 | 863 | –
12800 kPa, x1 = 0.086 | – | 732
13170 kPa, x1 = 0.086 | – | 742
13190 kPa, x1 = 0.118 | 837 | –
13220 kPa, x1 = 0.118 | – | 807
13230 kPa, x1 = 0.086 | 784 | –
13240 kPa, x1 = 0.1484 | – | 843
13270 kPa, x1 = 0.1484 | 869 | –
13640 kPa, x1 = 0.118 | – | 814
13700 kPa, x1 = 0.118 | 843 | –
13730 kPa, x1 = 0.086 | – | 755
13730 kPa, x1 = 0.1484 | – | 849
13760 kPa, x1 = 0.086 | 794 | –
13800 kPa, x1 = 0.1484 | 874 | –
14170 kPa, x1 = 0.118 | – | 821
14220 kPa, x1 = 0.086 | – | 766
14230 kPa, x1 = 0.118 | 850 | –
14270 kPa, x1 = 0.1484 | – | 855
14290 kPa, x1 = 0.086 | 803 | –
14520 kPa, x1 = 0.1484 | 881 | –
14710 kPa, x1 = 0.086 | – | 775
14720 kPa, x1 = 0.086 | 810 | –
14730 kPa, x1 = 0.118 | – | 829
14760 kPa, x1 = 0.118 | 856 | –
14780 kPa, x1 = 0.1484 | – | 861
15020 kPa, x1 = 0.1484 | 885 | –
15150 kPa, x1 = 0.086 | – | 783
15280 kPa, x1 = 0.118 | – | 836
15290 kPa, x1 = 0.118 | 861 | –
15330 kPa, x1 = 0.086 | 819 | –
15350 kPa, x1 = 0.1484 | – | 866
15460 kPa, x1 = 0.1484 | 889 | –
15740 kPa, x1 = 0.086 | – | 792
15740 kPa, x1 = 0.118 | 866 | –
15760 kPa, x1 = 0.086 | 825 | –
15770 kPa, x1 = 0.118 | – | 842
15800 kPa, x1 = 0.1484 | – | 870
15940 kPa, x1 = 0.1484 | 893 | –
16200 kPa, x1 = 0.086 | 831 | –
16250 kPa, x1 = 0.086 | – | 801
16370 kPa, x1 = 0.118 | 872 | –
16400 kPa, x1 = 0.118 | – | 849
16600 kPa, x1 = 0.1484 | – | 881
16670 kPa, x1 = 0.1484 | 899 | –
